Patent publication US20210008095A1, “METHODS FOR TREATING MUSCULAR DYSTROPHY” (Sarepta Therapeutics, Inc., priority 2015, published 2021)
“And” between values parts separate entries of the source, which are not always exact repeats. Equal values may be shown once. “Also recorded” adds a separate entry of the source. Marks after values point to notes of the source that are not given here.

Assays:
Assay type in all cases: in vivo, human
[1] = system: patients with Duchenne muscular dystrophy (DMD) amenable to exon 51 skipping; test: 6 Minute Walk Test (6MWT), Study 201/202; set-up: key to Year 4 6MWT: 6MWT distance walked, in meters; conditions: for difference in mean change from baseline in 6MWT distance vs matched external control cohort: 12 treated vs 13 controls; for Year 4 6MWT/6MWD / Year 3 6MWT/6MWD: individual subjects; for Year 4 6MWT Difference in Mean Change: vs external matched control
Description: For the eteplirsen treated cohort, eligible patients were between 7 and 13 years of age (inclusive), with out-of-frame deletions of the DMD gene that could be corrected by skipping exon 51. Patients were confirmed to have stable cardiac and pulmonary function and a stable dose of glucocorticoids for at least 24 weeks prior to enrollment. Only patients who could walk between 200 and 400 meters […] on the 6-Minute Walk Test (6MWT) at baseline were enrolled.
This 4 year trial was conducted in two phases: (1) treatment was double-blind through week 24 and (2) open-label thereafter. The primary endpoint was change in ambulation as measured by the 6-Minute Walk Test (6MWT).
(§1) Study 201 (Study no. 4658-us-201; ClinicalTrials.gov Identifier: NCT01396239) was a single-site, randomized, double-blind, placebo-controlled, multiple-dose efficacy, safety and tolerability trial of eteplirsen. Twelve patients with DMD were randomized to one of three groups: eteplirsen 30 mg/kg/week (Cohort 1); eteplirsen 50 mg/kg/week (Cohort 2); or placebo/delayed eteplirsen (Cohort 3). All patients received weekly intravenous eteplirsen or placebo/delayed eteplirsen dosing. Placebo-treated patients crossed over to weekly eteplirsen 30 (n=2) or 50 mg/kg (n=2) at week 25. Efficacy and safety were assessed at scheduled visits, and an independent Data Safety Monitoring Board ensured the welfare of all patients. All patients had bicep biopsies at baseline. Follow-up biopsies were performed in the opposite arm (biceps) at week 12 for the 50 mg/kg group and two placebo-treated patients and at week 24 for the 30 mg/kg group and two placebo-treated patients.
(§2) Patients continued weekly dosing with 30 or 50 mg/kg eteplirsen under Study 202 (Study no. 4658-us-202; ClinicalTrials.gov Identifier: NCT01540409) a long-term, open-label extension study. All efficacy assessments continued to be performed during Study 202, including a third biopsy (in the left deltoid muscle) in all patients at week 48. A voluntary fourth biopsy ( 11/12 patients) was performed at week 180. Monitoring of adverse events continued throughout the study.
(§3) To compare the results of the eteplirsen cohort to a matched external control cohort, the Italian Telethon (n=97) and Leuven Neuromuscular Research Center (NMRC) (n=89) registries were used to compile control data. These registries were chosen because the following data was available: longitudinal 6MWT data in exon 51 amenable patients, longitudinal 6MWT data up to 36 months, and genetic mutation data. There was also an equivalent standard of care, including steroids, in these registries. Patient data was selected based on the following factors: baseline 6MTW and steroid treatment, age of 7 years or older, and amenable to exon 51 skipping (FIG. 2)
(§4) The 6MWT was administered using the protocol established for patients with DMD by McDonald, et al. (Muscle Nerve, 2010; 42:966-74; Muscle Nerve, 2010; 41:500-10 herein incorporated by reference), except there was no use of the StepWatch actimetry device. Exploratory functional outcomes included the North Star Ambulatory Assessment, quantitative muscle testing, the 9-Hole Peg Test, pulmonary function testing (PFT), timed function tests, and assessment of quality of life.

[2] = system: patients with Duchenne muscular dystrophy (DMD) amenable to exon 51 skipping; test: Loss of ambulation / ambulatory status incl. Kaplan-Meier analysis, Study 201/202
Description: as §1, §2, §3, §4

[3] = Safety and tolerability monitoring, Study 201/202
Description: Safety was assessed by evaluation of adverse events, vital signs, physical examinations, electrocardiograms, echocardiograms, and clinical laboratory testing. In addition, kidney function was monitored via regular assessments of serum cystatin C and urine cystatin C and KIM-1.

[4] = system: patients with Duchenne muscular dystrophy (DMD) amenable to exon 51 skipping; test: Pulmonary function testing (MIP, MEP, FVC); conditions: baseline through Week 192
From the text: In some embodiments, treatment with eteplirsen slows or reduces the progressive respiratory muscle dysfunction and/or failure in patients with DMD that would be expected without treatment. In some embodiments, treatment with eteplirsen stabilizes respiratory muscle function in patients with DMD. In one embodiment, treatment with eteplirsen may reduce or eliminate the need for ventilation assistance that would be expected without treatment. In one embodiment, measurements of respiratory function for tracking the course of the disease, as well as the evaluation of potential therapeutic interventions include Maximum inspiratory pressure (MIP), maximum expiratory pressure (MEP) and forced vital capacity (FVC). MIP and MEP measure the level of pressure a person can generate during inhalation and exhalation, respectively, and are sensitive measures of respiratory muscle strength. […]
as §4

RNA, [P-deoxy-P-(dimethylamino)](2′,3′-dideoxy-2′,3′-imino-2′,3′-seco)(2′a→5′)(C-m5U-C-C-A-A-C-A-m5U-C-A-A-G-G-A-A-G-A-m5U-G-G-C-A-m5U-m5U-m5U-C-m5U-A-G), 5′-[P-[4-[[2-[2-(2-hydroxyethoxy)ethoxy]ethoxy]carbonyl]-1-piperazinyl]-N,N-dimethylphosphonamidate] (antisense CTCCAACATCAAGGAAGATGGCATTTCTAG; all phosphorodiamidate morpholino (PMO); 5' piperazinyl triethylene glycol carbamate tail on phosphonamidate, further chemistry not fully specified) [eteplirsen]
difference in mean change from baseline in 6MWT distance vs matched external control cohort ([1]; 4 years): 162 m
difference in mean change from baseline in 6MWT distance vs matched external control cohort ([1]; 36 months / 3 years): 151 m
6MWT distance percent change from baseline ([1]; 42 months, all 12 treated patients, external control −74% at month 36): −42%
6MWT distance percent change from baseline ([1]; 48 months, placebo-delayed patients excluded (n=8)): −43%
Year 4 6MWT/6MWD ([1]; 216 weeks, dose group 30 mg/kg): 349 meters and 332 meters and 0 meters (2×)
Year 4 6MWT/6MWD ([1]; 216 weeks, dose group 50 mg/kg): 192 meters and 221 meters and 237 meters and 400 meters
Year 4 6MWT/6MWD ([1]; 216 weeks, dose group Placebo to 30 mg/kg): 197 meters and 55 meters
Year 4 6MWT/6MWD ([1]; 216 weeks, dose group Placebo to 50 mg/kg): 230 meters and 143 meters
Year 4 6MWT ([1]; Table 5, individual ambulatory subjects (n=10)): 192 and 197 and 230 and 332 and 221 and 55† and 400 and 349 and 237 and 143
Year 4 6MWT Distance (m) ([1]; Table 6, individual ambulatory subjects (n=10)): 55† m and 332 m and 230 m and 221 m and 400 m and 349 m and 192 m and 143 m and 237 m and 197 m
Year 3 6MWT/6MWD ([1]; dose group 30 mg/kg): 378 meters and 359 meters and 0 meters (2×)
Year 3 6MWT/6MWD ([1]; dose group 50 mg/kg): 324 meters and 355 meters and 298 meters and 483 meters
Year 3 6MWT/6MWD ([1]; dose group Placebo to 30 mg/kg): 312 meters and 100 meters
Year 3 6MWT/6MWD ([1]; dose group Placebo to 50 mg/kg): 301 meters and 247 meters
walking distance over the study ([1]; over the duration of the study, FIG. 6): maintained a stable walking distance
walking ability retained relative to baseline ([1]; several subjects including subject number 4, 216 weeks): greater than 50%
change in 6MWT relative to baseline ([1]; subject number 15, 216 weeks): lost one meter
6MWT distance at year 4 in patients below the NSAA threshold at year 3 ([1]; subjects 003 and 005, respectively): 143 meters and 192 meters
Year 4 6MWT Difference in Mean Change ([1]; ANCOVA, Covariate: Baseline 6MWT): 150.3, p = 0.002
Year 4 6MWT Difference in Mean Change ([1]; ANCOVA, Covariates: Baseline 6MWT, Age): 156.1, p = 0.002
Year 4 6MWT Difference in Mean Change ([1]; ANCOVA, Rank transformed data): 8.7, p = 0.001
Year 4 6MWT Difference in Mean Change ([1]; MMRM, Covariate: Baseline 6MWT): 146.5, p = 0.003
Year 4 6MWT Difference in Mean Change ([1]; MMRM, Covariates: Baseline 6MWT, Age): 143.1, p = 0.004
Year 4 6MWT Difference in Mean Change ([1]; MMRM, Rank transformed data): 8.4, p = 0.004
patient ambulation between weeks 168 and 192 ([1]; weeks 168 to 192 (42 to 48 months)): patient ambulation stabilized; also recorded: stabilized patient ambulation
Kaplan-Meier estimate for loss of ambulation rate ([2]; 4 years / 216 weeks of treatment, external control 89.7%, p=0.0038 log-rank): 16.7%
patients remaining ambulant ([2]; 216 weeks (over 4 years)): 83.3%
number of patients remaining ambulant ([2]; 216 weeks of treatment): 10 out of 12
age for loss of ambulation ([2]; Kaplan-Meier, external control median 12.8 years): could not be estimated
number of patients who lost ambulation ([2]; over 36 months): two of the twelve
cohort that lost ambulation (cumulative) ([2]; over 36 months, external control 46.2%): 16.7%
number of patients who lost ambulation ([2]; over 216 weeks): two of the twelve
DMD patients remaining ambulant ([2]; week 192, 30 mg/kg once per week): 83%
number of patients ambulant ([2]; week 192 of treatment): 10/12
ambulation in patients who lost the ability to rise from supine ([2]; year 4 of treatment): remained ambulant at year 4
drug-related serious adverse events ([3]; over 2300 doses, 192 week treatment period): no drug-related serious adverse events
chemistries: hematologic, renal, coagulation or liver functions ([3]; through 216 weeks of treatment): no clinically significant changes in hematologic, renal, coagulation or liver functions
electrocardiograms, echocardiograms and PFTs ([3]; through 216 weeks of treatment): remained stable
physical examination and vital signs ([3]; through 216 weeks of treatment): no clinically significant changes
tolerability: adverse events, discontinuations, missed doses ([3]; through 216 weeks of treatment): well tolerated with no treatment-related adverse events, serious adverse events, discontinuations or missed doses
pulmonary function (MIP, MEP, FVC) [4]: continued stabilization of pulmonary function; also recorded: either maintained or had only a slight decline in all of MIP, MEP, and FVC
